# The source made the active and inactive calls. No rule for the calls is given here.
# Target: Chaperone protein DnaK (Escherichia coli (strain K12)) (UniProt P0A6Y8)
# Assay: E. coli DnaK SBD ligand binding – biophysical, NMR, chaperone (AID 1033)
# Settings: Purified DnaK SBD
# Chaperone protein DnaK (Escherichia coli (strain K12)), sequence (P0A6Y8 whole entry, looked up): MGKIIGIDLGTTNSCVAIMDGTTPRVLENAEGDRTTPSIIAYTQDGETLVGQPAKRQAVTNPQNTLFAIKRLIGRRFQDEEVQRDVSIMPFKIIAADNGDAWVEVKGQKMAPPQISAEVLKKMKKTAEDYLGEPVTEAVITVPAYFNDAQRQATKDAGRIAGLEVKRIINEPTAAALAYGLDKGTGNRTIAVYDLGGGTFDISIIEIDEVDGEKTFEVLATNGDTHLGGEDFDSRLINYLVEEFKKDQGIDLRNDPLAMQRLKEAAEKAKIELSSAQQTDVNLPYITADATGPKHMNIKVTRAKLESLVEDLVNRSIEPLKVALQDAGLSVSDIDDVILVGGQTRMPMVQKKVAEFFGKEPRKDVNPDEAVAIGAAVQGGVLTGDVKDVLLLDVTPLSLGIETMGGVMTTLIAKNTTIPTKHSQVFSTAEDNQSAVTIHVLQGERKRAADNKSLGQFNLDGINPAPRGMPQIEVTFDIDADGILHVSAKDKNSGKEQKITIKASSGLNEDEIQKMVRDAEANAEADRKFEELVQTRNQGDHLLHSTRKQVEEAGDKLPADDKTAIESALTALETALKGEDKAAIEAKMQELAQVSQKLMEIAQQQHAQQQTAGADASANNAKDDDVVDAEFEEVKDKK
row,SMILES,Kd
1,Cn1c(SCC(N)=O)nc2c1c(=O)[nH]c(=O)n2C,> 4 mM (inactive)
2,NC(=O)CSc1ccc(-c2ccco2)nn1,> 4 mM (inactive)
3,CC(=O)NC(=S)Nc1cccc(C(=O)O)c1C,> 4 mM (inactive)
4,NC(=O)CCn1ncc2ccccc21,> 4 mM (inactive)
5,CCCCCCCCCCCCCc1ccco1,> 4 mM (inactive)
6,COc1cc(-c2csc(C)n2)ccc1O,> 4 mM (inactive)
7,Cc1csc(NC(=O)c2cccs2)n1,> 4 mM (inactive)
8,CCn1nnnc1Oc1ccc(Cl)cc1,> 4 mM (inactive)
9,Nc1cc(N)nc(SCc2ccccc2)n1,> 4 mM (inactive)
10,C=CC(C1=CC(=O)C=CC1=O)c1ccccc1 (configuration not stated),> 4 mM (inactive)
11,Cc1[nH]c2ccccc2c1CN(C)C,> 4 mM (inactive)
12,COc1c(F)c(F)c(-c2csc(N)n2)c(F)c1F,> 4 mM (inactive)
13,CSc1nc(=O)[nH]c2c1CCC2,> 4 mM (inactive)
14,CCC(CCC(C)[C@H]1CCC2C3CC=C4C[C@@H](O)CC[C@]4(C)C3CC[C@@]21C)C(C)C (some centres not stated),> 4 mM (inactive)
15,Nc1nc(-c2ccncc2)cs1,> 4 mM (inactive)
16,NCc1ccc(S(N)(=O)=O)cc1,> 4 mM (inactive)
17,O=C(O)CSCc1c(F)cccc1Cl,> 4 mM (inactive)
18,O=C(O)C1CCN(C(=O)c2cccs2)CC1,> 4 mM (inactive)
19,CN1CCC=C(C(=O)O)C1,> 4 mM (inactive)

row,SMILES,Kd
1,CCOC(=O)c1cnc2cc(C)nn2c1C,> 4 mM (inactive)
2,CC(C)=CCCC1(C)C=Cc2c(O)c3c(c(CC=C(C)C)c2O1)OC12C(=CC4CC1C(C)(C)OC2(C/C=C(/C)C(=O)O)C4O)C3=O (configuration not stated),> 4 mM (inactive)
3,COCC(=O)Nc1nc2ccc(C)cc2s1,> 4 mM (inactive)
4,COc1ccccc1NC(C)=O,> 4 mM (inactive)
5,C=C[C@H]1CN2CC[C@H]1C[C@@H]2[C@@H](O)c1ccnc2ccc(OC)cc12,> 4 mM (inactive)
6,CC1(C)Cc2c(C#N)c(N)n(-c3ccccc3)c(=O)c2CO1,> 4 mM (inactive)
7,CS(=O)(=O)N1CCN(c2ccccc2F)CC1,> 4 mM (inactive)
8,NC(=O)CN1CC(c2ccccc2)CC1=O (configuration not stated),> 4 mM (inactive)
9,Cc1onc(-c2ccccc2)c1CN,> 4 mM (inactive)
10,COc1ccc(-c2oc3ccccc3c(=O)c2O)cc1OC,> 4 mM (inactive)
11,N#Cc1cnn2c(C(F)(F)F)cc(C(F)(F)F)nc12,> 4 mM (inactive)
12,CC1CCN(C(=O)c2ccc3c(c2)OCCO3)CC1,> 4 mM (inactive)
13,N#CCCn1c(=O)oc2ccccc21,> 4 mM (inactive)
14,Cn1c(SCC(N)=O)nc2ccccc2c1=O,> 4 mM (inactive)
15,COc1ccc(C(N)=O)cc1N,> 4 mM (inactive)
16,COc1ccc2c(c1)O[C@H]1c3ccc(OC)cc3OC[C@@H]21,> 4 mM (inactive)
17,Cc1ccc(SCCN2C(=O)NC(C)(C)C2=O)cc1,> 4 mM (inactive)
18,O=C(Nc1ccccc1C(F)(F)F)N1CCCCCC1,> 4 mM (inactive)
19,c1csc(-c2nnc3ccccn23)c1,> 4 mM (inactive)

row,SMILES,Kd
1,COC(=O)c1cc2ccccc2cn1,> 4 mM (inactive)
2,O=C(Nc1nccs1)c1ccc(=O)[nH]n1,> 4 mM (inactive)
3,CCOC(=O)CNC(=O)CSc1nnc(C)c(=O)[nH]1,> 4 mM (inactive)
4,O=C1CCC(=O)N1c1cccc([N+](=O)[O-])c1,> 4 mM (inactive)
5,Cc1cc(=O)n2[nH]c(N)nc2n1,> 4 mM (inactive)
6,COC(=O)[C@@H]1C(O)CC[C@H]2CN3CCc4c([nH]c5ccccc45)[C@@H]3C[C@@H]21 (some centres not stated),> 4 mM (inactive)
7,O=C1C=CC2=C3c4cc(O)c(O)cc4CC3(O)COC2=C1O (configuration not stated),> 4 mM (inactive)
8,CCCC(=O)N1CCSCC1,> 4 mM (inactive)
9,CC(=O)c1c(O)cc(O)cc1O,> 4 mM (inactive)
10,CC(C)=CC1C(CO)C1(C)C (configuration not stated),> 4 mM (inactive)
11,CNC(C)[C@H](O)c1ccccc1 (some centres not stated),> 4 mM (inactive)
12,CCN1C(=O)c2cccc3c(S(N)(=O)=O)ccc1c23,> 4 mM (inactive)
13,CCCCN1C(=O)N(C)C2NC(=O)NC21 (configuration not stated),> 4 mM (inactive)
14,COC(=O)c1oc2ccc(Cl)cc2c1NC(C)=O,> 4 mM (inactive)
15,O=C(O)C1COc2ccccc2C1 (configuration not stated),> 4 mM (inactive)
16,COc1cc(-c2coc3cc(OCc4ccccc4)c(OC)c(O)c3c2=O)cc(O)c1OC,> 4 mM (inactive)
17,CC(=O)c1ccc(Cc2cnc(N)s2)cc1,> 4 mM (inactive)
18,Cc1nnsc1C(=O)Nc1ccccn1,> 4 mM (inactive)
19,C/C=C(/C)C(=O)O[C@@H]1[C@H](OC(C)=O)[C@@]2(CO)C(CC1(C)C)C1=CCC3[C@@]4(C)CC[C@H](O[C@@H]5O[C@H](C(=O)O)[C@@H](O[C@@H]6O[C@H](CO)[C@@H](O)[C@H](O)[C@H]6O)[C@H](O)[C@H]5O[C@@H]5O[C@H](CO)[C@@H](O)[C@H](O)[C@H]5O)[C@](C)(CO)C4CC[C@@]3(C)[C@]1(C)C[C@H]2O (some centres not stated),> 4 mM (inactive)

# Reference: PubChem BioAssay AID1033 (Sanford-Burnham Center for Chemical Genomics, 2008)
